This note sets out measurements from PMC10249896, “AI-Assisted chemical probe discovery for the understudied Calcium-Calmodulin Dependent Kinase, PNCK” (PLOS Computational Biology, 2023).

Assay [1] addresses T1, GST-tagged PNCK recombinant protein (Homo sapiens, UniProt Q6P2M8).
T1 construct: GST; purchased Novus NBP1-99886
Kind of assay: ADP-Glo Kinase Assay, biochemical PNCK inhibitor screen. Particulars: for inhibition at 10 µM: read-out: Avg. Normalized % Inhibition, 10uM, ADP Kinase Glo. The protocol: ADP-Glo Kinase Assay (V6930, Promega) was used to screen the first round of compounds against PNCK. […] Autocamtide-II (GenScript RP10271) was used as the peptide substrate. This peptide was dissolved in water and prepared immediately prior to the assay. Calcium/Calmodulin 10X (Abcam ab189137) solution was used to create a custom kinase buffer: 40mM Tris,pH 7.5; 20mM MgCl2; 0.1mg/ml BSA; 50μM DTT and Ca2+/Calmodulin solution (0.03μg/μl, Calmodulin, 1mM Tris,pH 7.3, 0.5mM CaCl2). […] A standard curve was then done to determine the amount of protein needed to generate a signal in the linear range of the ATP curve. 100ng of PNCK and 2ng of substrate was used per well in the 96-well plate format of this assay. […] Plates were read using the Clariostar Plus. Data was normalized to a DMSO and staurosporine controls.
(§1) Data analysis of ADP Kinase Glo results were carried out per the manufacturer’s instructions. Results were represented as a percent decrease in activity. Data was normalized to staurosporine (positive control) as 100% decrease and DMSO (negative control) as a 0% decrease. Data for NanoBRET was analyzed by dividing the acceptor by the donor emission and […] to obtain raw millibret units (mBU). Background was subtracted using control emission averages. Data was normalized to positive and negative controls of staurosporine and DMSO. Concentration-response curves were plotted in GraphPad Prism 8 and IC50s were extrapolated using non-linear fit with concentrations transformed to logarithmic scale. Baseline was held constant and represented the average mBU of staurosporine controls while the top was constrained to represent the average mBU of DMSO controls. Error bars on dose-response curves represent standard deviations.
(In ADP-Glo the light output rises with the ADP produced.)

For assay [2], the target named is T2, PNCK Nano-luciferase fusion (Homo sapiens, UniProt Q6P2M8).
T2 construct: host or cells: HEK293
T2 sequence (Q6P2M8 whole entry, the tested form may be a part): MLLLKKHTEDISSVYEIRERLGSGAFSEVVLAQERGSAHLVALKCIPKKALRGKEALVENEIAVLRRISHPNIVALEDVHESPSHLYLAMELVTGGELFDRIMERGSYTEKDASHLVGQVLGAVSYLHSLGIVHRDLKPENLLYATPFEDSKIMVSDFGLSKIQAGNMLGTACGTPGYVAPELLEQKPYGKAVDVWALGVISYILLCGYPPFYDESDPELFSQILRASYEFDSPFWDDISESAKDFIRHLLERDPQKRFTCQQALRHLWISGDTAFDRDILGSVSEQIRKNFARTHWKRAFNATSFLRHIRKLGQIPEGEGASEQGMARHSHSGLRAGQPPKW
Description: NanoBRET Target Engagement Intracellular Kinase Assay, cell-based PNCK binding screen and dose response in HEK293 cells. Particulars: for Dose-Response Curve Data (NanoBRET signal, replicates): listed as UM37; for dose response raw signal: replicate values; for NanoBRET binding, result in words: cell-based screen / comparison with parent hit. The protocol:
The NanoBRET Target Engagement Intracellular Kinase Assay (Promega N2520) is a cell-based binding screen which reads loss of BRET signal as a result of target binding. A PNCK Nano-luciferase fusion vector plasmid was generated custom by Promega. The K-10 tracer was used for the assay, as determined by Promega. The plasmid was maxiprepped by Genewiz for use in all future assays. HEK293 cells were seeded in a T175 flask in DMEM with 10% FBS. The following day, cells were counted to 10,000, resuspended in assay media (Optimem with no phenol red, 1% FBS). Plasmid and transfection reagent (Fugene HD, Promega E2311) were added to the mixture and cells were seeded in a white 96-well plate. After 20–24 hours, media was changed, and the assay proceeded according to protocol. K10 tracer was added at the recommended concentration of 1uM while compounds were initially screened at both 10uM and 1uM. Cells incubated with compound at 37 degrees Celsius for a maximum of 2 hours before the plate was read using Clariostar Plus. Data was normalized to Staurosporine and DMSO controls. For compounds selected for further analysis, dose response curves were generated using the same testing protocol but at 8 different concentrations: 24uM, 12uM, 6uM, 3uM, 1.5uM, .75uM 0.375uM and 0.1875uM. UM195 was tested with concentrations from 12uM to 0.09375. Similarly, compounds from the analog by catalog analysis were tested at concentrations from 24uM to 0.1875uM.
as §1

Assay [3] concerns the target T2, PNCK Nano-luciferase fusion. The description is as above. Particulars: Concentration (M) 2.00E-05; replicate values.
[4] abbreviates: compound 10uM, 25uM ATP, normalized to DMSO and staurosporine controls.
Setting [5] is: HEK293, read-out: Avg. Normalized % Inhibition, 1uM, Nanobret.
[6] abbreviates: HEK293, read-out: Avg. Normalized % Inhibition, 10uM, Nanobret.
Where [7] appears, read: compound 1uM, HEK293, K10 tracer 1uM, normalized to staurosporine and DMSO, read-out: Avg. Normalized % Inhibition, 1uM, Nanobret.
Where [8] appears, read: compound 10uM, HEK293, K10 tracer 1uM, normalized to staurosporine and DMSO, read-out: Avg. Normalized % Inhibition, 10uM, Nanobret.

Several values for one entry are separate records, joined by “and”; a condition that tells them apart may be missing. Identical values can stand only once. Like-named read-outs stand apart in the source and are kept apart here.

As for `O=c1[nH]c2ccccc2n1CCCSc1nnc2c(n1)[nH]c1ccccc12` [UM_037, 1-(3-5H-[1,2, 4]triazino [5,6-b]indol-3-ylsulfanylpropyl)-2,3-dihydro-1H-1,3-benzodiazol-2-one], the “Avg. Normalized % Inhibition, 10uM, ADP Kinase Glo” value (from here on “Avg. Normalized % Inhibition, 10uM”) in assay [1] (setting [4]) is on record as “minimal inhibitory activity”. Moreover, the “Dose-Response Curve Data (NanoBRET signal, replicates)” value is 6.25 and 6.50 and 6.41 in assay [2] (Concentration 1.20E-05 M); 7.94 and 8.66 and 7.96 in assay [2] (Concentration 1.50E-06 M); 8.18 and 8.37 and 8.94 in assay [2] (Concentration 1.88E-07 M); 4.85 and 4.94 and 5.59 in assay [2] (Concentration 2.40E-05 M); 8.21 (2×) and 8.11 in assay [2] (Concentration 3.00E-06 M); 8.11 and 8.67 and 8.63 in assay [2] (Concentration 3.75E-07 M). For the same compound, the “Dose-Response Curve Data (NanoBRET signal, replicates)” value in assay [2] (Concentration 6.00E-06 M) was 7.28 and 7.38 and 7.80; in assay [2] (Concentration 7.50E-07 M) it was 8.16 and 8.66 and 8.74.
Turning to `O=C1NC(=O)C(=Cc2ccc(Sc3nc4ccccc4[nH]3)o2)C(=O)N1` [UM_036], the inhibition at 10 µM in assay [1] was 39.2%; in assay [2] (setting [6]), 16.8%. Also, the inhibition at 1 µM in assay [2] (setting [5]) is 2.83%.
Take `COc1cc(OC)c(Nc2ncnc3sc(C(=O)O)c(C)c23)cc1Cl` [UM_028]: the “Avg. Normalized % Inhibition, 10uM” value in assay [1] (setting [4]) is given as “Negligible”. Also, the inhibition at 1 µM in assay [2] (setting [7]) came to 3.45%. For the same compound, the inhibition at 10 µM in assay [2] (setting [8]) worked out at 16.7%.
The corresponding values for `COc1ccccc1CNc1ncnc2sc(C(=O)O)c(C)c12` [UM_035] are 75.66%, 0% and 13.6%.
The corresponding values for `CC(C)c1ccc(NS(=O)(=O)c2cc(-c3ccc(=O)[nH]n3)ccc2Cl)cc1` [UM_029] are 81.53%, 0% and 52%.
`O=C1CN(C(=O)COc2ccc3c4c(c(=O)oc3c2)CCCCC4)CCN1` [UM_259]: the “dose response raw signal” value in assay [3] is 4.80 and 4.22 and 5.32 and 4.30; in assay [2] (Concentration (M) 1.00E-05), 4.13 and 4.39 and 5.19 and 4.12; in assay [2] (Concentration (M) 1.25E-06), 5.91 and 7.63 and 6.69 and 6.36; in assay [2] (Concentration (M) 1.56E-07), 7.98 and 8.01 and 8.32 and 8.22; in assay [2] (Concentration (M) 2.50E-06), 4.91 and 6.63 and 5.69 and 5.36; in assay [2] (Concentration (M) 3.13E-07), 8.79 and 8.75 and 7.57 and 7.89. Also, the “dose response raw signal” value in assay [2] (Concentration (M) 5.00E-06) was 4.98 and 5.24 and 5.45 and 6.11; in assay [2] (Concentration (M) 6.25E-07), 8.89 and 8.75 and 7.37 and 7.79. Also, the IC50 in assay [2] (8-point concentration-response, HEK293) is 2900 nM. In addition, in assay [2], the “NanoBRET binding, result in words” value is “higher affinity for PNCK than the parent”. In addition, the inhibition at 1 µM in assay [2] (setting [7]) was 27.5%. In assay [2] (setting [8]), the inhibition at 10 µM is 84.1%.
Consider `O=C(O)Cc1cc(C2CCN(C(=O)c3ccc(C(F)(F)F)nc3O)CC2)[nH]n1` [UM_031], for which the inhibition at 10 µM came out at 7.65% in assay [1] (setting [4]) and 14.6% in assay [2] (setting [8]). Also, the inhibition at 1 µM in assay [2] (setting [7]) was found to be 13.3%.
In the case of `CC(C)(C(=O)O)c1ccc(NS(=O)(=O)c2cc(F)c(F)cc2F)cc1` [UM_025], the inhibition at 10 µM in assay [1] (setting [4]) turned out to be 75.3%; in assay [2] (setting [8]), 17.2%. Further, the inhibition at 1 µM in assay [2] (setting [7]) is 0%.
For the compound `O=C(O)Cc1cc(C2CCN(C(=O)Cc3n[nH]c4ccccc34)CC2)[nH]n1` [UM_039], the “Avg. Normalized % Inhibition, 10uM” value in assay [1] (setting [4]) is 91% and 91.1687%. The “NanoBRET binding, result in words” value in assay [2] is “negligible activity”. Besides, the inhibition at 1 µM in assay [2] (setting [7]) came out at 2.17%. The inhibition at 10 µM in assay [2] (setting [8]) turned out to be 6.89%.
Take `COc1ccc(Cl)c(S(=O)(=O)Nc2ccc(OCC(=O)O)cc2)c1` [UM_038]: in assay [1] (setting [4]), the “Avg. Normalized % Inhibition, 10uM” value amounted to 68.8% and the inhibition at 10 µM was > 50%. In addition, the inhibition at 1 µM in assay [2] (setting [7]) was determined as 0%. In assay [2] (setting [8]), the inhibition at 10 µM was found to be 18.9%.
In the case of `Cc1ccc(F)c(S(=O)(=O)Nc2ccc(-c3nn(C)cc3C(=O)O)cc2)c1` [UM_023], the inhibition at 10 µM amounted to 38.2% in assay [1] (setting [4]) and 17.6% in assay [2] (setting [8]). Besides, the inhibition at 1 µM in assay [2] (setting [7]) turned out to be 2.86%.
The corresponding values for `O=C(O)Cc1ccc(NS(=O)(=O)c2cccc(Cl)c2Cl)cc1` [UM_024] are 48.6%, 0% and 0%.
The corresponding values for `Cc1ccccc1CN1CCC(CNc2ncnc3sc(C(=O)O)c(C)c23)CC1` [UM_027] are 63.9%, 23% and 7.16%.
As for `O=C(O)c1ccc(F)c(S(=O)(=O)Nc2ccc(-c3cnco3)cc2)c1` [UM_021], the inhibition at 10 µM in assay [1] (setting [4]) was found to be 33.3%; in assay [2] (setting [8]), 0%. In assay [2] (setting [7]), the inhibition at 1 µM turned out to be 0%.
For `CN([C@@H](Cc1ccc(OS(=O)(=O)c2cccc3cnccc23)cc1)C(=O)N1CCN(c2ccccc2)CC1)S(=O)(=O)c1cccc2cnccc12` [KN-62, reference compound], the inhibition at 10 µM in assay [1] (setting [4]) came to 100%; in assay [2] (setting [6]) it was 81.5%. Also, in assay [2] (setting [5]), the inhibition at 1 µM is 31.2%.
With `COc1cccc([C@@H](C)NC(=O)c2ccc(N3CC(=O)NC3=O)cc2)c1` [UM_032], in assay [1] (setting [4]), the “Avg. Normalized % Inhibition, 10uM” value worked out at 69.5% and the inhibition at 10 µM was > 50%. Moreover, the inhibition at 1 µM in assay [2] (setting [7]) stood at 0%. Also, the inhibition at 10 µM in assay [2] (setting [8]) was found to be 17.4%.
As for `COc1ccc(CNC(=O)c2cc(C3CC3)[nH]n2)cc1C(=O)O` [UM_019], the “Avg. Normalized % Inhibition, 10uM” value in assay [1] (setting [4]) is “Negligible”. Further, the inhibition at 1 µM in assay [2] (setting [7]) was 0%. For the same compound, the inhibition at 10 µM in assay [2] (setting [8]) stood at 0%.
Turning to `Cc1c(C(=O)O)sc2ncnc(NCc3nncn3CCc3ccccc3)c12` [UM_033], the results for the inhibition at 10 µM in assay [1] (setting [4]) and in assay [2] (setting [8]) were 50.8% and 13.5%, respectively. Further, the inhibition at 1 µM in assay [2] (setting [7]) came to 8.63%.
For `O=C(O)c1ccc(-c2nc3c([nH]2)CCN(C(=O)c2cc(C4CC4)n[nH]2)C3)cc1` [UM_034], the values for the inhibition at 10 µM in assay [1] (setting [4]) and in assay [2] (setting [8]) were 51.7% and 7.78%, respectively. Also, the inhibition at 1 µM in assay [2] (setting [7]) is 6.51%.
Turning to `O=C(O)c1n[nH]c2c1CN(C(=O)c1ccc(N3CCOCC3)cc1)CC2` [UM_030], the “Avg. Normalized % Inhibition, 10uM” value in assay [1] (setting [4]) was “Negligible”. In assay [2] (setting [7]), the inhibition at 1 µM was determined as 0%. Also, the inhibition at 10 µM in assay [2] (setting [8]) stood at 11.3%.

By inhibition is commonly meant the relative decrease from the control value, in per cent. Usually IC50 stands for the concentration at which inhibition is half-maximal.
